# Measurements: patent US9775844B2, “Heterocyclic compounds and uses thereof” (Infinity Pharmaceuticals, Inc., priority 2014, dated 2017)
# Like-named read-outs stand apart in the source and are kept apart here.
# Key:
# post-irradiated tumors = details: cited from earlier work
# LLC tumor brei = LLC tumor brei model with or without cyclophosphamide (tumor growth, FACS); format: in vivo, mouse; details: Compound BB 15 mg/kg QD PO; cyclophosphamide 50 mg/kg EOD IP
# Protocol: In this experiment, treatment began when tumors reached approx. 150 mm^3—around day 12. Caliper and xenogen images were monitored. Treatment groups n=13-15/group. […] Samples for FACs analysis were collected on day 23 post implant. Using FACS, cells were assayed for the level of CD11b and Gr-1.
# [1] = Human pharmacokinetic prediction based on non-human animal studies
# Protocol: Based on non-human animal studies, a predicted human dose to achieve exposure at the IC90 for PI3K-γ is approximately 2 mg. […] In some embodiments, the dose (e.g., a therapeutically effective dose) is about 2 mg, 1-3 mg, 1-5 mg, 1-10 mg, 0.5-20 mg, 0.1-50 mg, 0.1-75 mg, 0.5-75 mg, 1-75 mg, 0.1-100 mg, 0.5-100 mg, or 1-100 mg. In some embodiments, the dose is about 1-10 mg. In some embodiments, the dose is about 1-50 mg. In some embodiments, the dose is about 1-100 mg. In a 70 kg human, a 2 mg dose corresponds to 0.029 mg/kg.
# PI3K α = PI3K α (Homo sapiens (Human), UniProt P42336); assay: PI3-Kinase Promega ADP-Glo Max assay; format: biochemical
# Protocol: (§1) Promega ADP-Glo Max assay kit (Cat. No. V7002) was utilized to determine IC50 values for α, β, δ and γ isoforms of human Class I PI3 kinases (Millipore). […] Reactions were incubated at room temperature for 2 hours followed by addition of 25 uL of stop solution. After a 40-minute incubation at room temperature, 50 uL of Promega detection mix was added followed by incubation for 1 hour at room temperature. Plates were then read on Envision plate reader in lunimescence mode. Data was converted to % inhibition using the following equation below:
# (§2) [formula] where S is the sample luminescence, Pos is a positive control without added PI3K, Neg is the negative control without added compound. Data was then plotted as % inhibition vs compound concentration.
# PI3K β = PI3K β (Homo sapiens (Human), UniProt P42338); assay: PI3-Kinase Promega ADP-Glo Max assay; format: biochemical
# Sequence of PI3K β (P42338 whole entry): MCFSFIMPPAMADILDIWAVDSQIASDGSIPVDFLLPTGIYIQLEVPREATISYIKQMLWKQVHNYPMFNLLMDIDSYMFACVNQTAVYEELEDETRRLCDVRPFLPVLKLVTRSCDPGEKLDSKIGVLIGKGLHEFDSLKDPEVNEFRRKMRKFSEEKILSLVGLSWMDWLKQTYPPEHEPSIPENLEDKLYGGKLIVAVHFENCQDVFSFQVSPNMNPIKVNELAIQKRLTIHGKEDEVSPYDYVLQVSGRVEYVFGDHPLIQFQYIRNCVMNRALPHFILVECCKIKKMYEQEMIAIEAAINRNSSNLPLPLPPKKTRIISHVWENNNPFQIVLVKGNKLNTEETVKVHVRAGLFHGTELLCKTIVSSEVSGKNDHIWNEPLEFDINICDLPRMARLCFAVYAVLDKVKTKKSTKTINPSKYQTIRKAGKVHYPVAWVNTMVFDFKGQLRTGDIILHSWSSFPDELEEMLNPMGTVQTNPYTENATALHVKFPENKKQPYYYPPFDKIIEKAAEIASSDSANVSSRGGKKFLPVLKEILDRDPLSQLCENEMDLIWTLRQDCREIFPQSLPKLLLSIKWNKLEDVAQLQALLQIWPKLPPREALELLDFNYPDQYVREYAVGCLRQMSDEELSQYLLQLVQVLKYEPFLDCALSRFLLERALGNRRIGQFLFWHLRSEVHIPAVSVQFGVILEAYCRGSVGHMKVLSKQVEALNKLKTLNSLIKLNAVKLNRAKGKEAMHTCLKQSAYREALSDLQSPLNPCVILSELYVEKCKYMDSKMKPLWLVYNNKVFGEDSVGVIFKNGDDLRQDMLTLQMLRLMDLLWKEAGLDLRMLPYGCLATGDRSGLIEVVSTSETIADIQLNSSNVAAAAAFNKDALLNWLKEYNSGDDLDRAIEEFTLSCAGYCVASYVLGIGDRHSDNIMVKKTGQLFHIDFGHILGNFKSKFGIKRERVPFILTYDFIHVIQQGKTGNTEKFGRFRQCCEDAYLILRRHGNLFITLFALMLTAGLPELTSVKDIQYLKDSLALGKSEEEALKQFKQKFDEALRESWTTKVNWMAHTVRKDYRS
# Sequence of PI3K β (P27986 whole entry partner): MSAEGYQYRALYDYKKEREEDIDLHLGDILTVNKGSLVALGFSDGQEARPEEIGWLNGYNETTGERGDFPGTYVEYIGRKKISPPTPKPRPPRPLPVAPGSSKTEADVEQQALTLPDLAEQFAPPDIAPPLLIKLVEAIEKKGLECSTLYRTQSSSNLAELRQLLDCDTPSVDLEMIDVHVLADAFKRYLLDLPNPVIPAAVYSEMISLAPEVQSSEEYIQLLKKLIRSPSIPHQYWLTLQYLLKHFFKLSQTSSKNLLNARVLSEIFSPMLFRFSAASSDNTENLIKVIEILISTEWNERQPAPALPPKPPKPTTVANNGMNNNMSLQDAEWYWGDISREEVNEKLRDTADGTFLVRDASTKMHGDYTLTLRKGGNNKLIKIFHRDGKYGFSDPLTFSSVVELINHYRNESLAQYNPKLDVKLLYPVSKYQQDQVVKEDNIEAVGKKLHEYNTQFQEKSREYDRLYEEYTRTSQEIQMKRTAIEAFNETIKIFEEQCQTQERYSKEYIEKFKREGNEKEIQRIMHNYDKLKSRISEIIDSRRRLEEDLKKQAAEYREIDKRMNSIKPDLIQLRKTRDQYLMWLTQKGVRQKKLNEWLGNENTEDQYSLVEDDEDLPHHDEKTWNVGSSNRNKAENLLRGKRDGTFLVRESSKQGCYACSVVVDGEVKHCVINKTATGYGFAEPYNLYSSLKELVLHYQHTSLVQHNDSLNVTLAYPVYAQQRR
# PI3K δ = PI3K δ (Homo sapiens (Human), UniProt O00329); assay: PI3-Kinase Promega ADP-Glo Max assay; format: biochemical
# Sequence of PI3K δ (O00329 whole entry): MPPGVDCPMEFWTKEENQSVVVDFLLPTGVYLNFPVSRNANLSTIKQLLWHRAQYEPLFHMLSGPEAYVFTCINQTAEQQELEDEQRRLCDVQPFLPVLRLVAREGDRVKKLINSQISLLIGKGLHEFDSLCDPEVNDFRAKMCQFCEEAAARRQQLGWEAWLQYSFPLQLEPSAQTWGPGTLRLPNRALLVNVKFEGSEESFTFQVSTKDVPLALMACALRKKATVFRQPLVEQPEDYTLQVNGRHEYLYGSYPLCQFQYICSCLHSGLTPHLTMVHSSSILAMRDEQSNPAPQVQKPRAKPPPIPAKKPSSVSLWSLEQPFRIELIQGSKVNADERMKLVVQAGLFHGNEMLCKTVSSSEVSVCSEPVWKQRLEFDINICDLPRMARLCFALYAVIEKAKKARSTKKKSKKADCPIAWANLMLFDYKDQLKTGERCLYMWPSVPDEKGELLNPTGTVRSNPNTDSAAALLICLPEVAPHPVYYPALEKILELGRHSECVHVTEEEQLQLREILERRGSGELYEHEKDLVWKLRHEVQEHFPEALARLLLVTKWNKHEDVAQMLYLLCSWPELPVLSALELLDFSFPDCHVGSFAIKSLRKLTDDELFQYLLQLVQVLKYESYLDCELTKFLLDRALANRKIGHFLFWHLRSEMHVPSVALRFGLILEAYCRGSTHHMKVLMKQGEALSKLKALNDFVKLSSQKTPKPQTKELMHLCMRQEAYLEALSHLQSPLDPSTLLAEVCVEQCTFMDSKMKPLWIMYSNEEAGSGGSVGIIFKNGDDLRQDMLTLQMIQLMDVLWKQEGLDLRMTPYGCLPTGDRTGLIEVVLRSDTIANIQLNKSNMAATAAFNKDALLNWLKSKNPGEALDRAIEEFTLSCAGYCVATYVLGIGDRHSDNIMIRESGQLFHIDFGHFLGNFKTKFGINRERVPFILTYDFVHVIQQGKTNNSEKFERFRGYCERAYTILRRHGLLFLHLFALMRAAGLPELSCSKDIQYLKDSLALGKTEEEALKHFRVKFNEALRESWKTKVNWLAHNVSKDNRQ
# Sequence of PI3K δ (P27986 whole entry partner): as the sequence (P27986 whole entry partner) above
# PI3K γ = PI3K γ (Homo sapiens (Human), UniProt P48736); assay: PI3-Kinase Promega ADP-Glo Max assay; format: biochemical
# Sequence of PI3K γ (P48736 whole entry): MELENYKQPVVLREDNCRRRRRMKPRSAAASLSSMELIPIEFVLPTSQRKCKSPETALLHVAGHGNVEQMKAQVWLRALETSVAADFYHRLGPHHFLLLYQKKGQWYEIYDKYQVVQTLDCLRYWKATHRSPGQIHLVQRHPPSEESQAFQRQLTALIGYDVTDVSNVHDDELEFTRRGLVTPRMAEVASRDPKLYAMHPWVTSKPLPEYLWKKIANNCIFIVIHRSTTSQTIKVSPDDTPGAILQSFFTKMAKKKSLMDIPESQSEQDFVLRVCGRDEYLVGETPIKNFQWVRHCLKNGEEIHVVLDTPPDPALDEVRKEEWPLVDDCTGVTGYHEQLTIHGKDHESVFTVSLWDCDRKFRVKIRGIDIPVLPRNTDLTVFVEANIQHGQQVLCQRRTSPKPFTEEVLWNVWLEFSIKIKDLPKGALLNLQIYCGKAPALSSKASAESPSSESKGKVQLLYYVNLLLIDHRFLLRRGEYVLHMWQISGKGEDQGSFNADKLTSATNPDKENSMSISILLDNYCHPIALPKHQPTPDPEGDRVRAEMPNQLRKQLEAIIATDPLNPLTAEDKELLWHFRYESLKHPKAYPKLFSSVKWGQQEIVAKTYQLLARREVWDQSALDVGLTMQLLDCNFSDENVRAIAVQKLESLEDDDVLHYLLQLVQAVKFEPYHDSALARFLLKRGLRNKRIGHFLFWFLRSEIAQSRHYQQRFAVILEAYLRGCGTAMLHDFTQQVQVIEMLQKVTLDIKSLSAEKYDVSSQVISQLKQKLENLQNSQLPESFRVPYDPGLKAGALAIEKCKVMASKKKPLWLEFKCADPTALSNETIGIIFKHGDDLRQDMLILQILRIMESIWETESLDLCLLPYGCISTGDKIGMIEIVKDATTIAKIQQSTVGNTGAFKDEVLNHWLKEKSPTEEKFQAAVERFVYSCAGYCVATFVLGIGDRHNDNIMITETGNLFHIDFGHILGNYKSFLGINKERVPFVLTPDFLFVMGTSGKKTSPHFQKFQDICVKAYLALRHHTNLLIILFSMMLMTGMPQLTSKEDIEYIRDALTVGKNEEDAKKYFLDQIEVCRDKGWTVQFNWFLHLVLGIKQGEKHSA
# Protocol: as §1, §2
# PI3K-δ in RAJI cells = PI3K-δ in RAJI cells (Homo sapiens (Human), UniProt O00329); assay: RAJI p110 δ assay (PI3K-δ selective cellular assay, phospho-AKT); format: cell-based; details: phospho-AKT; read-out: RAJI p110 δ assay IC50
# Sequence of PI3K-δ in RAJI cells (O00329 whole entry): as the sequence (O00329 whole entry) above
# Sequence of PI3K-δ in RAJI cells (P27986 whole entry partner): as the sequence (P27986 whole entry partner) above
# [2] = target: PI3K-γ in RAW264.7 macrophages (Mus musculus (Mouse), UniProt Q9JHG7); assay: Raw264.7 p110 γ assay (PI3K-γ selective cellular assay, C5a-stimulated phospho-AKT); format: cell-based; details: for IC50: phospho-AKT, read-out: Raw264.7 p110 γ assay IC50
# Description: Briefly, serum-starved RAW264.7 cells are stimulated with a known GPCR agonist C5a. […] Cells can be treated with test compounds prior to, simultaneously with, or subsequent to the stimulation by C5a. RAW 264.7 cells respond to the complement component fragment C5a through activation of the C5a receptor, and the C5a receptor activates macrophages and induces cell migration.
# [3] = Mouse pharmacokinetics, oral single and repeat dose; format: in vivo; details: for tlast / AUC(0-t) / Cmax / Tmax / AUC(0-inf) / half-life: female C57 mice; for AUC(0-t): female, C57, mouse, po; for AUC(0-t) / Cmax / Tmax / AUC(0-inf) / half-life: plasma; for Cmax / Tmax / AUC(0-inf) / half-life: mouse
# Protocol: Animals were weighed daily prior to dosing. […] On subsequent dosing days, the animals' condition was noted prior to dosing; the animals were observed within 4 hours of dosing, and at the end of the day.
# Samples were collected at pre-dose 0.25, 0.5, 1, 2, 4, 6 and 24 h following the first dose on day 1 and pre-dose (trough), 0.25, 0.5, 1, 2, 4, 6 and 24 h following the final dose on day 3 Animals received a single oral dose daily for 3 consecutive days. Blood was collected by retro-orbital bleeding for all time points on day 1. All other blood sampling was collected by a cardiac puncture. Blood was collected into K2EDTA tubes and placed on wet ice. Within 15 min of collection, the sample was centrifuged at 10,000 rpm at 4° C. for 10 min in a bench top centrifuge and the plasma transferred to a new microcentrifuge tube.
# A similar study was carried out using Compound 88. […] Below is a table that details the results for Compound 88: […]
# [4] = test system: haematological malignancies; details: cited from earlier work
# CCL3, CCL4, and CXCL13 = details: CLL; cited from earlier work
SMILES,IC50 (PI3K α) [nM],IC50 (PI3K β) [nM],IC50 (PI3K δ) [nM],IC50 (PI3K γ) [nM],PI3K δ/PI3K γ IC50 (selectivity) (PI3K γ),IC50 (PI3K-δ in RAJI cells) [nM],RAJIδ/Raw264.7 γ IC50 (selectivity) [2],IC50 [2] [nM],further results
c1cc(CN2CCCNCCNCCCNCC2)ccc1CN1CCCNCCNCCCNCC1 [AMD3100],,,,,,,,,tumor vasculogenesis and tumor regrowth (post-irradiated tumors): blocked tumor vasculogenesis and tumor regrowth
"O=P1(N(CCCl)CCCl)NCCCO1 (centres unmarked) [cyclophosphamide, reference compound]",,,,,,,,,"tumor growth, LLC tumor brei model (LLC tumor brei): reduced tumor growth"
C[C@H](NC(=O)c1c(N)nn2cccnc12)c1cc2cccc(C#Cc3cnn(C)c3)c2c(=O)n1-c1ccccc1 [Compound 4],,,,,,,,,predicted human dose to achieve exposure at the IC90 for PI3K-γ [1]: approximately 2 mg
"Cc1c(C#Cc2cccc3nc([C@H](C)NC(=O)c4c(N)nn5cccnc45)n(-c4ccccc4)c(=O)c23)cnn1C [Compound 88, (S)-2-amino-N-(1-(5-((1,5-dimethyl-1H-pyrazol-4-yl)ethynyl)-4-oxo-3-phenyl-3,4-dihydroquinazolin-2-yl)ethyl)pyrazolo[1,5-a]pyrimidine-3-carboxamide]",5000 to 10000,5000 to 10000,5000 to 10000,100 to 500,X (key: V = 0.1 to 1; W = >1 to <10; X = 10 to <50; Y = 50 to <850),100 to 500,Y (key: V = 0.1 to 1; W = >1 to <10; X = 10 to <50; Y = 50 to <850),1 to 50,"tlast ([3]; 2 mg/kg PO NMP): 8 h; tlast ([3]; 7.5 mg/kg PO NMP): 24 h; tlast ([3]; 15 mg/kg PO NMP): 24 h; stability in serum (unbound plasma concentration time course) ([3]; female mice, 2, 7.5, 15 mg/kg PO): good stability in serum; AUC(0-t) ([3]; 2 mg/kg, 2 mg/kg PO NMP, read-out: AUC0-8): 3890 ng·h/mL; AUC(0-t) ([3]; 2 mg/kg, 2 mg/kg PO NMP, read-out: AUClast): 3890 ng·h/mL; AUC(0-t) ([3]; 7.5 mg/kg, 7.5 mg/kg PO NMP, read-out: AUC0-8): 15800 ng·h/mL; AUC(0-t) ([3]; 7.5 mg/kg, 7.5 mg/kg PO NMP, read-out: AUClast): 20600 ng·h/mL; AUC(0-t) ([3]; 15 mg/kg, 15 mg/kg PO NMP, read-out: AUC0-8): 34600 ng·h/mL; AUC(0-t) ([3]; 15 mg/kg, 15 mg/kg PO NMP, read-out: AUClast): 71700 ng·h/mL; Cmax ([3]; 2 mg/kg PO NMP): 654 ng/mL; Tmax ([3]; 2 mg/kg PO NMP): 2 h; AUC(0-inf) ([3]; 7.5 mg/kg PO NMP): 20700 ng·h/mL; Cmax ([3]; 7.5 mg/kg PO NMP): 3700 ng/mL; Tmax ([3]; 7.5 mg/kg PO NMP): 1 h; half-life ([3]; 7.5 mg/kg PO NMP): 2.8 h; AUC(0-inf) ([3]; 15 mg/kg PO NMP): 81200 ng·h/mL; Cmax ([3]; 15 mg/kg PO NMP): 5700 ng/mL; Tmax ([3]; 15 mg/kg PO NMP): 1 h; half-life ([3]; 15 mg/kg PO NMP): 7.9 h"
CC[C@H](Nc1ncnc2[nH]cnc12)c1nc2cccc(F)c2c(=O)n1-c1ccccc1 [CAL-101],,,,,,,,,"lymph node and lymphocyte response in CLL patients ([4]; CLL patients): induces rapid lymph node reduction and redistribution of lymphocytes into the circulation; single agent clinical activity in lymphoma ([4]; mantle cell lymphoma and refractory non Hodgkin's lymphoma): active in mantle cell lymphoma; clinical activity in CLL ([4]; phase 1 trial, patients with poor prognostic characteristics): showed activity in CLL; expression of stromal and T-cell derived factors including CCL3, CCL4, and CXCL13 (CCL3, CCL4, and CXCL13): suppresses the expression"
CC#Cc1cccc2cc(C(C)NC(=O)c3c(N)nn4cccnc34)c(-c3ccccc3)nc12 (centres unmarked) [Compound 51],5000 to 10000,1000 to 5000,1000 to 5000,100 to 500,W (W = >1 to <10),1 to 100,W (W = >1 to <10),1 to 50,
C#Cc1cccc2nc([C@H](C)NC(=O)c3c(N)nn4cccnc34)n(-c3ccc(F)cc3)c(=O)c12 [Compound 50],5000 to 10000,5000 to 10000,1000 to 5000,1 to 100,Y (Y = 50 to <850),1 to 100,W (W = >1 to <10),1 to 50,
C[C@H](NC(=O)c1c(N)nn2cccnc12)c1cc2cccc(C#Cc3ccnn3C)c2c(=O)n1-c1ccccc1 [Compound 73],5000 to 10000,5000 to 10000,5000 to 10000,100 to 500,X (X = 10 to <50),500 to 1000,Y (Y = 50 to <850),1 to 50,
C[C@H](NC(=O)c1c(N)nn2cccnc12)c1cc2cccc(C#Cc3cncn3C)c2c(=O)n1C1CC1 [Compound 23],1000 to 5000,1000 to 5000,5000 to 10000,1000 to 5000,W (W = >1 to <10),100 to 500,W (W = >1 to <10),1 to 50,
C[C@H](NC(=O)c1c(N)nn2cccnc12)c1cc2cccc(C#CC=O)c2c(=O)n1-c1ccccc1 [Compound 36],1000 to 5000,1 to 500,1000 to 5000,1 to 100,X (key: V = 0.1 to 1; W = >1 to <10; X = 10 to <50; Y = 50 to <850),100 to 500,W (key: V = 0.1 to 1; W = >1 to <10; X = 10 to <50; Y = 50 to <850),100 to 10000,
C/C=C/c1cccc2cc([C@H](C)NC(=O)c3c(N)nn4cccnc34)n(-c3ccccc3)c(=O)c12 [Compound 70],5000 to 10000,5000 to 10000,5000 to 10000,100 to 500,X (key: V = 0.1 to 1; W = >1 to <10; X = 10 to <50; Y = 50 to <850),1 to 100,X (X = 10 to <50),1 to 50,
C[C@H](NC(=O)c1c(N)nn2cccnc12)c1cc2cccc(C#Cc3cnc[nH]3)c2c(=O)n1-c1ccccc1 [Compound 43],5000 to 10000,5000 to 10000,5000 to 10000,100 to 500,Y (Y = 50 to <850),100 to 500,X (X = 10 to <50),1 to 50,
C[C@H](NC(=O)c1c(N)nn2cccnc12)c1cc2cccc(C#Cc3ccc(=O)n(C)c3)c2c(=O)n1-c1ccccc1 [Compound 20],5000 to 10000,5000 to 10000,1000 to 5000,1 to 100,X (X = 10 to <50),100 to 500,X (X = 10 to <50),1 to 50,
C[C@H](NC(=O)c1c(N)nn2cccnc12)c1cc2cccc(NC(=O)c3cnn(C)c3)c2c(=O)n1-c1ccccc1 [Compound 90],5000 to 10000,5000 to 10000,5000 to 10000,1000 to 5000,W (key: V = 0.1 to 1; W = >1 to <10; X = 10 to <50; Y = 50 to <850),1000 to 10000,X (key: V = 0.1 to 1; W = >1 to <10; X = 10 to <50; Y = 50 to <850),100 to 10000,
